Reference: ChEMBL document CHEMBL1145313, “Identification of potent and highly selective chiral tri-amine and tetra-amine mu opioid receptors ligands: an example of lead optimization using mixture-based libraries” (Bioorg Med Chem Lett, 2006)

Experiments:
[1] = target: Mu-type opioid receptor (Rattus norvegicus, UniProt P33535); assay: Displacement of [3H]DAMGO from mu opioid receptor in rat brain homogenate; format: tissue-based
[2] = target: Kappa-type opioid receptor (Homo sapiens, UniProt P41145); assay: Displacement of [3H]U-69593 from kappa opioid receptor
[3] = target: Delta-type opioid receptor (Homo sapiens, UniProt P41143); assay: Displacement of [3H]DPDE from delta opioid receptor
Delta-type opioid receptor, sequence (P41143 whole entry): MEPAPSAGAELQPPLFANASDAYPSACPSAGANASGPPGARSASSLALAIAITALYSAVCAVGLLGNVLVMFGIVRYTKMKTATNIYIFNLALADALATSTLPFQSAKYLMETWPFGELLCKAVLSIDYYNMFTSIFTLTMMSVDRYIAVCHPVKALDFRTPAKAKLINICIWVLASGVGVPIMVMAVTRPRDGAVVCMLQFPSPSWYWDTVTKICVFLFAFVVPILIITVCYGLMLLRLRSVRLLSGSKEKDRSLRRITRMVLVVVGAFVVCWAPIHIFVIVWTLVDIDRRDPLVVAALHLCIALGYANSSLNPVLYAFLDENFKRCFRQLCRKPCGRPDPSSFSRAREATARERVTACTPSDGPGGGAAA

Kappa-type opioid receptor, sequence (P41145 whole entry): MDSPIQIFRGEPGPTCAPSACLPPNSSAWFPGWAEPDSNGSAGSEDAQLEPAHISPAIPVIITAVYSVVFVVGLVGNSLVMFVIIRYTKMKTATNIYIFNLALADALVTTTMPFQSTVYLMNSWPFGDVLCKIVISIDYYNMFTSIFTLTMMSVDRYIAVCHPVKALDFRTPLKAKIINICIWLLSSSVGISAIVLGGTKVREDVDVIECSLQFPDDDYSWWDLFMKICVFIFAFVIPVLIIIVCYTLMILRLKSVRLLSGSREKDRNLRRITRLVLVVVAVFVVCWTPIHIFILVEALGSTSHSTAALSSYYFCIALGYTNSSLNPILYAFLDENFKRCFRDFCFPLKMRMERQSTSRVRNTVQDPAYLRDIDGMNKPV
Mu-type opioid receptor, sequence (P33535 whole entry): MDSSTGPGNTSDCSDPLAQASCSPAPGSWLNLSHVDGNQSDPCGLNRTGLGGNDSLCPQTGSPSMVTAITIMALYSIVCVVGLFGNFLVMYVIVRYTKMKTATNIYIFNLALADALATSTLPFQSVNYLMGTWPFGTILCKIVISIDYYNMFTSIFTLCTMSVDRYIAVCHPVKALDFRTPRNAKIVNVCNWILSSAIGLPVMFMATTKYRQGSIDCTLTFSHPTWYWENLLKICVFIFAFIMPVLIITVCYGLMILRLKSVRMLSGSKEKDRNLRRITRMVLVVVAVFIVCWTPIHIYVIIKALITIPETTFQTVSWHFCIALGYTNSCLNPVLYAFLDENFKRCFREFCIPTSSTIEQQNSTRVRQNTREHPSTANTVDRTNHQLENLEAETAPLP

| Structure (SMILES) | IC50 [1] [nM] | IC50 [2] [nM] | IC50 [3] [nM] |
| --- | --- | --- | --- |
| CCN[C@H](CN[C@H](CN[C@H](CN[C@H](CN[C@H](CN[C@H](CN)CCSC)Cc1ccc(O)cc1)Cc1ccccc1)Cc1ccccc1)Cc1ccc(O)cc1)Cc1ccc(O)cc1 | 126 |  |  |
| CCN[C@H](CN[C@H](CN[C@H](CN[C@H](CN[C@H](CN[C@@H](CN)CO)Cc1ccc(O)cc1)Cc1ccccc1)Cc1ccc(O)cc1)Cc1ccc(O)cc1)Cc1ccc(O)cc1 | 345 |  |  |
| CCN[C@H](CN[C@H](CN[C@H](CN)Cc1ccccc1)Cc1ccc(O)cc1)Cc1ccc(O)cc1 | 47 |  |  |
| CN(C)[C@@H](Cc1ccc(O)cc1)CN(C)[C@H](CNCc1ccccc1)Cc1ccc(O)cc1 | 38 | 2360 | 8260 |
| CCN[C@H](CN[C@H](CN[C@@H](Cc1ccc(O)cc1)CN1CCC[C@H]1CN[C@@H](CN1CCC[C@H]1CN)[C@@H](C)O)Cc1ccc(O)cc1)Cc1ccc(O)cc1 | 41 |  |  |
| CCN[C@H](CN[C@H](CN[C@@H](Cc1ccccc1)CN1CCC[C@H]1CN[C@@H](CN1CCC[C@H]1CN)[C@@H](C)O)Cc1ccc(O)cc1)Cc1ccc(O)cc1 | 15 |  |  |
| CCN[C@H](CN[C@H](CN[C@H](CN[C@H](CN[C@H](CN[C@H](CN)Cc1ccccc1)Cc1ccc(O)cc1)Cc1ccccc1)Cc1ccccc1)Cc1ccc(O)cc1)Cc1ccc(O)cc1 | 176 |  |  |
| CCN[C@H](CN[C@H](CN[C@H](CN[C@H](CN[C@H](CN[C@H](CN)CCSC)Cc1ccc(O)cc1)Cc1ccccc1)Cc1ccc(O)cc1)Cc1ccc(O)cc1)Cc1ccc(O)cc1 | 260 |  |  |
| CCN[C@H](CN[C@H](CN[C@H](CN[C@H](CN)Cc1ccc(O)cc1)Cc1ccc(O)cc1)Cc1ccc(O)cc1)Cc1ccc(O)cc1 | 96 |  |  |
| CCN[C@H](CN[C@H](CN[C@@H](Cc1ccccc1)CN1CCC[C@H]1CN[C@H](CN[C@H](CN)Cc1ccc(O)cc1)Cc1ccc(O)cc1)Cc1ccc(O)cc1)Cc1ccc(O)cc1 | 27 |  |  |
| CCN[C@H](CN[C@H](CN[C@H](CN[C@H](CN[C@@H](CN[C@H](CN)CCSC)[C@@H](C)O)Cc1ccccc1)Cc1ccccc1)Cc1ccc(O)cc1)Cc1ccc(O)cc1 | 115 |  |  |
| CCN[C@H](CN[C@H](CN[C@H](CN[C@H](CN[C@@H](CN[C@H](CN)Cc1ccc(O)cc1)[C@@H](C)O)Cc1ccccc1)Cc1ccc(O)cc1)Cc1ccc(O)cc1)Cc1ccc(O)cc1 | 200 |  |  |
| CCN[C@H](CN[C@H](CN[C@H](CN[C@H](CN[C@@H](CN[C@H](CN)CCSC)[C@@H](C)O)Cc1ccccc1)Cc1ccc(O)cc1)Cc1ccc(O)cc1)Cc1ccc(O)cc1 | 181 |  |  |
| CCN[C@H](CN[C@H](CN[C@@H](Cc1ccc(O)cc1)CN1CCC[C@H]1CN[C@H](CN[C@H](CN)Cc1ccccc1)Cc1ccc(O)cc1)Cc1ccc(O)cc1)Cc1ccc(O)cc1 | 83 |  |  |
| CN(C[C@@H](N)Cc1ccc(O)cc1)[C@H](CNCc1ccccc1)Cc1ccc(O)cc1 | 10 | 4140 | 10200 |
| CCN[C@H](CN[C@H](CN[C@H](CN[C@H](CN[C@@H](CN[C@@H](CN)CO)[C@@H](C)O)Cc1ccccc1)Cc1ccccc1)Cc1ccc(O)cc1)Cc1ccc(O)cc1 | 90 |  |  |
| CCN[C@H](CN[C@H](CN[C@@H](Cc1ccc(O)cc1)CN1CCC[C@H]1CN[C@H](CN[C@H](CN)CCSC)Cc1ccc(O)cc1)Cc1ccc(O)cc1)Cc1ccc(O)cc1 | 113 |  |  |
| CCN[C@H](CN[C@H](CN[C@H](CN[C@H](CN[C@@H](CN[C@@H](CN)CO)[C@@H](C)O)Cc1ccccc1)Cc1ccc(O)cc1)Cc1ccc(O)cc1)Cc1ccc(O)cc1 | 163 |  |  |
| CCN[C@H](CN[C@H](CN[C@@H](Cc1ccccc1)CN1CCC[C@H]1CN[C@@H](CN[C@H](CN)Cc1ccc(O)cc1)[C@@H](C)O)Cc1ccc(O)cc1)Cc1ccc(O)cc1 | 20 |  |  |
| CCN[C@H](CN[C@H](CN[C@@H](Cc1ccc(O)cc1)CN1CCC[C@H]1CN[C@H](CN[C@H](CN)CO)Cc1ccc(O)cc1)Cc1ccc(O)cc1)Cc1ccc(O)cc1 | 89 |  |  |
| CCN[C@H](CN[C@H](CN[C@@H](Cc1ccc(O)cc1)CN1CCC[C@H]1CN[C@@H](CN[C@@H](CN)CO)[C@@H](C)O)Cc1ccc(O)cc1)Cc1ccc(O)cc1 | 32 |  |  |
| CCN[C@H](CN[C@H](CN[C@H](CN[C@H](CN[C@@H](Cc1ccc(O)cc1)CN1CCC[C@H]1CN)Cc1ccccc1)Cc1ccccc1)Cc1ccc(O)cc1)Cc1ccc(O)cc1 | 48 |  |  |
| CNC[C@H](Cc1ccc(O)cc1)N(Cc1ccccc1)C[C@H](Cc1ccc(O)cc1)NC | 1210 | 11100 | 10200 |
| CCN[C@H](CN[C@H](CN[C@@H](Cc1ccc(O)cc1)CN1CCC[C@H]1CN[C@@H](Cc1ccc(O)cc1)CN1CCC[C@H]1CN)Cc1ccc(O)cc1)Cc1ccc(O)cc1 | 79 |  |  |
| CCN[C@H](CN[C@H](CN)Cc1ccc(O)cc1)Cc1ccc(O)cc1 | 344 |  |  |
| CCN[C@H](CN[C@H](CN[C@H](CN)Cc1ccc(O)cc1)Cc1ccc(O)cc1)Cc1ccc(O)cc1 | 138 |  |  |
| CCN[C@H](CN[C@H](CN[C@H](CN[C@H](CN[C@@H](CN1CCC[C@H]1CN)[C@@H](C)O)Cc1ccccc1)Cc1ccc(O)cc1)Cc1ccc(O)cc1)Cc1ccc(O)cc1 | 155 |  |  |

| Structure (SMILES) | IC50 [1] [nM] | IC50 [2] [nM] | IC50 [3] [nM] |
| --- | --- | --- | --- |
| CNC[C@H](Cc1ccc(O)cc1)N(Cc1ccccc1)C[C@@H](N)Cc1ccc(O)cc1 | 882 | 14400 | 35600 |
| CCN[C@H](CN[C@H](CN[C@H](CN[C@H](CN[C@H](CN[C@@H](CN)CO)Cc1ccc(O)cc1)Cc1ccccc1)Cc1ccccc1)Cc1ccc(O)cc1)Cc1ccc(O)cc1 | 66 |  |  |
| CCN[C@H](CN[C@H](CN[C@@H](Cc1ccc(O)cc1)CN1CCC[C@H]1CN[C@H](CN[C@H](CN)Cc1ccc(O)cc1)Cc1ccc(O)cc1)Cc1ccc(O)cc1)Cc1ccc(O)cc1 | 87 |  |  |
| CCN[C@H](CN[C@H](CN[C@@H](Cc1ccccc1)CN1CCC[C@H]1CN[C@H](CN[C@H](CN)Cc1ccccc1)Cc1ccc(O)cc1)Cc1ccc(O)cc1)Cc1ccc(O)cc1 | 27 |  |  |
| CN[C@H](CN[C@H](CN)Cc1ccc(O)cc1)Cc1ccc(O)cc1 | 111 | 9670 | 10900 |
| CCN[C@H](CN[C@H](CN[C@@H](Cc1ccccc1)CN1CCC[C@H]1CN[C@@H](CN[C@H](CN)CCSC)[C@@H](C)O)Cc1ccc(O)cc1)Cc1ccc(O)cc1 | 14 |  |  |
| CCN[C@H](CN[C@H](CN[C@@H](Cc1ccc(O)cc1)CN1CCC[C@H]1CN)Cc1ccc(O)cc1)Cc1ccc(O)cc1 | 13 |  |  |
| CCN[C@H](CN[C@H](CN[C@H](CN[C@H](CN[C@H](CN[C@H](CN)Cc1ccc(O)cc1)Cc1ccc(O)cc1)Cc1ccccc1)Cc1ccc(O)cc1)Cc1ccc(O)cc1)Cc1ccc(O)cc1 | 261 |  |  |
| CCN[C@H](CN[C@H](CN[C@@H](Cc1ccccc1)CN1CCC[C@H]1CN[C@H](CN[C@H](CN)CO)Cc1ccc(O)cc1)Cc1ccc(O)cc1)Cc1ccc(O)cc1 (stereo in doubt) | 67 |  |  |
| CCN[C@H](CN[C@H](CN[C@@H](Cc1ccccc1)CN1CCC[C@H]1CN[C@H](CN[C@H](CN)CO)Cc1ccc(O)cc1)Cc1ccc(O)cc1)Cc1ccc(O)cc1 (stereo in doubt; 5) | 19 |  |  |
| CCN[C@H](CN[C@H](CN[C@H](CN[C@H](CN[C@H](CN[C@H](CN)Cc1ccc(O)cc1)Cc1ccc(O)cc1)Cc1ccccc1)Cc1ccccc1)Cc1ccc(O)cc1)Cc1ccc(O)cc1 | 95 |  |  |
| CCN[C@H](CN[C@H](CN[C@H](CN[C@H](CN[C@H](CN)Cc1ccc(O)cc1)Cc1ccc(O)cc1)Cc1ccc(O)cc1)Cc1ccc(O)cc1)Cc1ccc(O)cc1 | 146 |  |  |
| CCN[C@H](CN[C@H](CN[C@H](CN[C@H](CN[C@H](CN[C@H](CN)Cc1ccccc1)Cc1ccc(O)cc1)Cc1ccccc1)Cc1ccc(O)cc1)Cc1ccc(O)cc1)Cc1ccc(O)cc1 | 258 |  |  |
| CCN[C@H](CN[C@H](CN[C@H](CN[C@H](CN[C@@H](CN[C@H](CN)Cc1ccc(O)cc1)[C@@H](C)O)Cc1ccccc1)Cc1ccccc1)Cc1ccc(O)cc1)Cc1ccc(O)cc1 | 78 |  |  |
| CCN[C@H](CN[C@H](CN[C@@H](Cc1ccccc1)CN1CCC[C@H]1CN[C@@H](CN[C@@H](CN)CO)[C@@H](C)O)Cc1ccc(O)cc1)Cc1ccc(O)cc1 | 19 |  |  |
| CCN[C@H](CN[C@H](CN[C@@H](Cc1ccc(O)cc1)CN1CCC[C@H]1CN[C@@H](CN[C@H](CN)CCSC)[C@@H](C)O)Cc1ccc(O)cc1)Cc1ccc(O)cc1 | 112 |  |  |
| CN[C@@H](Cc1ccc(O)cc1)CN(C)[C@H](CNCc1ccccc1)Cc1ccc(O)cc1 |  | 3850 | 3970 |
| CCN[C@H](CN[C@H](CN[C@@H](Cc1ccccc1)CN1CCC[C@H]1CN[C@H](CN)Cc1ccc(O)cc1)Cc1ccc(O)cc1)Cc1ccc(O)cc1 | 24 |  |  |
| CCN[C@H](CN[C@H](CN[C@H](CN[C@H](CN[C@@H](CN1CCC[C@H]1CN)[C@@H](C)O)Cc1ccccc1)Cc1ccccc1)Cc1ccc(O)cc1)Cc1ccc(O)cc1 | 82 |  |  |
| CCN[C@H](CN[C@H](CN[C@@H](Cc1ccc(O)cc1)CN1CCC[C@H]1CN[C@@H](CN[C@H](CN)Cc1ccc(O)cc1)[C@@H](C)O)Cc1ccc(O)cc1)Cc1ccc(O)cc1 | 61 |  |  |
| CCN[C@H](CN[C@H](CN[C@@H](Cc1ccccc1)CN1CCC[C@H]1CN[C@@H](CN[C@H](CN)Cc1ccccc1)[C@@H](C)O)Cc1ccc(O)cc1)Cc1ccc(O)cc1 | 19 |  |  |
| CCN[C@H](CN[C@H](CN[C@@H](Cc1ccc(O)cc1)CN1CCC[C@H]1CN[C@@H](CN[C@H](CN)Cc1ccccc1)[C@@H](C)O)Cc1ccc(O)cc1)Cc1ccc(O)cc1 | 128 |  |  |
| CCN[C@H](CN[C@H](CN[C@H](CN[C@H](CN[C@@H](CN[C@H](CN)Cc1ccccc1)[C@@H](C)O)Cc1ccccc1)Cc1ccccc1)Cc1ccc(O)cc1)Cc1ccc(O)cc1 | 108 |  |  |
| CCN[C@H](CN[C@H](CN[C@@H](Cc1ccccc1)CN1CCC[C@H]1CN[C@H](CN[C@H](CN)CCSC)Cc1ccc(O)cc1)Cc1ccc(O)cc1)Cc1ccc(O)cc1 | 34 |  |  |
| CCN[C@H](CN[C@H](CN[C@H](CN[C@H](CN[C@@H](Cc1ccc(O)cc1)CN1CCC[C@H]1CN)Cc1ccccc1)Cc1ccc(O)cc1)Cc1ccc(O)cc1)Cc1ccc(O)cc1 | 148 |  |  |
| NC[C@H](Cc1ccc(O)cc1)NC[C@@H](N)Cc1ccc(O)cc1 | 6040 | 32200 |  |
| CCN[C@H](CN[C@H](CN[C@@H](Cc1ccccc1)CN1CCC[C@H]1CN[C@@H](Cc1ccc(O)cc1)CN1CCC[C@H]1CN)Cc1ccc(O)cc1)Cc1ccc(O)cc1 | 18 |  |  |
